Experimental data published in patent publication US7037502B2, “Peptide with the amino acid sequence of KVLDGQDP having anti-inflammatory properties” (priority 2001, dated 2006).
Entries after “also recorded” stand apart in the source; their conditions may differ.

Legend:
[1] = test system: allergic conjunctivitis to ragweed (Ambrosia trifida); test: Allergic conjunctivitis to ragweed in guinea pig: clinical scores (conjunctival edema and redness); format: in vivo, Hartley female guinea pig; settings: for Statistical evaluation of clinical scores (Mann-Whitney test), P compared to Dexamethasone / Statistical evaluation of clinical scores (Mann-Whitney test), P compared to Livostine / Statistical evaluation of clinical scores (Mann-Whitney test), P compared to No treatment group: conjunctival edema and redness score 0-4+, 20 min after allergen challenge, 12 eyes per group, eye drops; for Clinical signs (conjunctival redness and edema scores), result in words: n=12, P<0.01, SD<10%, Mann-Whitney test
Protocol: The peptides of the present invention were analyzed in experimental model of allergic conjunctivitis to ragweed (giant ragweed; Ambrosia trifida) in guinea pig. Hartley strain of guinea pig was selected according to previous reports of conjunctival anaphylaxis (Calonge M., et al., Acta Ophthalmol 68; 470–476, 1990) and females were chosen based on the sex dimorphism of ocular mucosal immunity with the protective role of male hormones (Saruya S., et al., Act Soc Ophthalmol Jap 72; 833–845, 1968). The conjunctival redness and edema are main signs of seasonal allergic conjunctivitis and eosionphil infiltration is the hallmark of the conjunctival histology in patients with allergic conjunctivitis (Abelson M B., et al., Arch Ophthalmol. 101; 555–556, 1983; Butrus S I., et al., Int. Ophthalmol. Clin. 28; 324–328, 1988) 86 Hartley female guinea pigs, 200–250 g were housed in the animal facilities of the Asan Institute for Life Sciences (Korea), given guinea pig chow and water ad libitum, and cared for in accordance with the Declaration of Helsinki and the National Institute of Health Guide to the Care and Use of the Laboratory Animals (Korea). […] On day 15, immunized guinea pigs were divided 14 groups, 6 for each group. 11 anti-inflammatory peptides including new recombinants, dexamethasone eye drop (Maxidex, 0.1% dexamethasone, Alcon) and anti-histamine eye drop (Livostin, levocabastine, Janssen) were used for 13 groups, and no treatment for one group. Normal controls were employed as 6 non-immunized and non-treated guinea pigs. […] All the procedures were followed experimental model of allergic conjunctivitis described by Merayo-Lloves et al (Experimental model of allergic conjunctivitis to ragweed in guinea pig. Curr. Eye Res. 14; 487–494, 1995). Anti-inflammatory peptides were resolved in sterile saline (100 μmol/40 μl concentration). All peptides and dexamethasone eye solutions were challenged 3 hour prior to the last pollen application on day 15, 10 minutes after pollen application, and 4 times thereafter at the 3 hour interval. Conjunctival edema and redness were judged in room light and under an operating microscope (Zeiss, Germany). The evaluation was performed in a masked fashion at 20 min after allergen challenge and each clinical sign was scored on a scale 0–4+ (0 absent, 1+ minimal, 2+ mild, 3+ moderate, 4+ severe), adapted for guinea pig from previous report (Merayo-Lloves et al: Experimental model of allergic conjunctivitis to ragweed in guinea pig. Curr. Eye Res. 14; 487–494, 1995). Clinical scores of each group (12 eyes in each group) were analyzed.

[2] = test system: eosinophil infiltration of conjunctiva; test: Allergic conjunctivitis to ragweed in guinea pig: histology, eosinophil count in conjunctiva; format: in vivo, Hartley female guinea pig; settings: for Statistical evaluation of eosinophil count (Mann-Whitney test), P compared to Dexamethasone / Statistical evaluation of eosinophil count (Mann-Whitney test), P compared to Livostine / Statistical evaluation of eosinophil count (Mann-Whitney test), P compared to No treatment group: eosinophils in three fields of conjunctiva (×400), 12 eyes per group, eye drops
Protocol: The peptides of the present invention were analyzed in experimental model of allergic conjunctivitis to ragweed (giant ragweed; Ambrosia trifida) in guinea pig. Hartley strain of guinea pig was selected according to previous reports of conjunctival anaphylaxis (Calonge M., et al., Acta Ophthalmol 68; 470–476, 1990) and females were chosen based on the sex dimorphism of ocular mucosal immunity with the protective role of male hormones (Saruya S., et al., Act Soc Ophthalmol Jap 72; 833–845, 1968). The conjunctival redness and edema are main signs of seasonal allergic conjunctivitis and eosionphil infiltration is the hallmark of the conjunctival histology in patients with allergic conjunctivitis (Abelson M B., et al., Arch Ophthalmol. 101; 555–556, 1983; Butrus S I., et al., Int. Ophthalmol. Clin. 28; 324–328, 1988)
86 Hartley female guinea pigs, 200–250 g were housed in the animal facilities of the Asan Institute for Life Sciences (Korea), given guinea pig chow and water ad libitum, and cared for in accordance with the Declaration of Helsinki and the National Institute of Health Guide to the Care and Use of the Laboratory Animals (Korea).
On day 15, immunized guinea pigs were divided 14 groups, 6 for each group. 11 anti-inflammatory peptides including new recombinants, dexamethasone eye drop (Maxidex, 0.1% dexamethasone, Alcon) and anti-histamine eye drop (Livostin, levocabastine, Janssen) were used for 13 groups, and no treatment for one group. Normal controls were employed as 6 non-immunized and non-treated guinea pigs. […] All the procedures were followed experimental model of allergic conjunctivitis described by Merayo-Lloves et al (Experimental model of allergic conjunctivitis to ragweed in guinea pig. Curr. Eye Res. 14; 487–494, 1995).
Anti-inflammatory peptides were resolved in sterile saline (100 μmol/40 μl concentration). All peptides and dexamethasone eye solutions were challenged 3 hour prior to the last pollen application on day 15, 10 minutes after pollen application, and 4 times thereafter at the 3 hour interval.
The orbits were excentrated after the animals were killed with CO2 asphyxia, and specimens were prepared for light microscopic examination. Sectioned specimens were stained with hematoxylin-eosin.
Eosinophils in the standardized fields of conjunctival epithelium, the immediate subepithelial, and the stroma were counted in three non-consecutive fields (magnification ×400) for each treatment in each experiment (12 eyes in each group).

[3] = target: PLA2 (Sus scrofa, UniProt P00592); settings: Miele et al., Nature 335, 726-730, 1988; cited from earlier work
Sequence of PLA2 (P00592 23-146): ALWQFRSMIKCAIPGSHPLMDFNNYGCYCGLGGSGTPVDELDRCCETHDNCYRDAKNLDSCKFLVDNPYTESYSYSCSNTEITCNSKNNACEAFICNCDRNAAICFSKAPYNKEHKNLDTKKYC

For “HDMNKVLDL [Peptide A2, known peptide, antiflammin]”, the “Statistical evaluation of clinical scores (Mann-Whitney test), P compared to Dexamethasone” value [1] was 0.002, the “Statistical evaluation of clinical scores (Mann-Whitney test), P compared to Livostine” value [1] was 0.003 and the “Statistical evaluation of clinical scores (Mann-Whitney test), P compared to No treatment group” value [1] was 0.382. For the same compound, the “Statistical evaluation of eosinophil count (Mann-Whitney test), P compared to Dexamethasone” value [2] was 0.000, the “Statistical evaluation of eosinophil count (Mann-Whitney test), P compared to Livostine” value [2] was 0.000 and the “Statistical evaluation of eosinophil count (Mann-Whitney test), P compared to No treatment group” value [2] was 0.161.

For GTLAKKLT [Peptide P2], the “Statistical evaluation of clinical scores (Mann-Whitney test), P compared to Dexamethasone” value [1] was 0.000, the “Statistical evaluation of clinical scores (Mann-Whitney test), P compared to Livostine” value [1] was 0.000 and the “Statistical evaluation of clinical scores (Mann-Whitney test), P compared to No treatment group” value [1] was 0.279. The “Statistical evaluation of eosinophil count (Mann-Whitney test), P compared to Dexamethasone” value [2] was 0.000, the “Statistical evaluation of eosinophil count (Mann-Whitney test), P compared to Livostine” value [2] was 0.000 and the “Statistical evaluation of eosinophil count (Mann-Whitney test), P compared to No treatment group” value [2] was 0.004.

In the case of “SHLRKVFDK [Peptide A1, known peptide, antiflammin]”, the “Statistical evaluation of clinical scores (Mann-Whitney test), P compared to Dexamethasone” value [1] is reported as 0.007, the “Statistical evaluation of clinical scores (Mann-Whitney test), P compared to Livostine” value [1] is reported as 0.009 and the “Statistical evaluation of clinical scores (Mann-Whitney test), P compared to No treatment group” value [1] is reported as 0.003. The “Clinical signs (conjunctival redness and edema scores), result in words” value (“Clinical signs” below) [1] was “statistically significant difference from other groups”, the “Statistical evaluation of eosinophil count (Mann-Whitney test), P compared to Dexamethasone” value [2] was 0.004 and the “Statistical evaluation of eosinophil count (Mann-Whitney test), P compared to Livostine” value [2] was 0.006. The “Statistical evaluation of eosinophil count (Mann-Whitney test), P compared to No treatment group” value [2] was 0.000.

For GQDP [Peptide E3], the “Statistical evaluation of clinical scores (Mann-Whitney test), P compared to Dexamethasone” value [1] was 0.000, the “Statistical evaluation of clinical scores (Mann-Whitney test), P compared to Livostine” value [1] was 0.002 and the “Statistical evaluation of clinical scores (Mann-Whitney test), P compared to No treatment group” value [1] was 0.016. The “Statistical evaluation of eosinophil count (Mann-Whitney test), P compared to Dexamethasone” value [2] was 0.007, the “Statistical evaluation of eosinophil count (Mann-Whitney test), P compared to Livostine” value [2] was 0.000 and the “Statistical evaluation of eosinophil count (Mann-Whitney test), P compared to No treatment group” value [2] was 0.001.

With “DPVKG [Peptide E2, synthetic peptide of the invention]” the “Statistical evaluation of clinical scores (Mann-Whitney test), P compared to Dexamethasone” value [1] was 0.050, the “Statistical evaluation of clinical scores (Mann-Whitney test), P compared to Livostine” value [1] was 0.039 and the “Statistical evaluation of clinical scores (Mann-Whitney test), P compared to No treatment group” value [1] was 0.000. For the same compound, the “Clinical signs” value [1] was “statistically significant difference from other groups”, the “Anti-inflammatory activity, overall conclusion in words” value ([2]; allergic conjunctivitis model in guinea pig, summary of Example 2, listed as SEQ ID NO:3) was “excellent anti-inflammatory activity in comparison with other known peptide sequences; also recorded: much higher activity than the steroidal anti-inflammatory dexamethasone” and the “Statistical evaluation of eosinophil count (Mann-Whitney test), P compared to Dexamethasone” value [2] was 0.028. For the same compound, the “Statistical evaluation of eosinophil count (Mann-Whitney test), P compared to Livostine” value [2] was 0.060, the “Statistical evaluation of eosinophil count (Mann-Whitney test), P compared to No treatment group” value [2] was 0.000 and the “Histological signs (eosinophil infiltration), result in words” value ([2]; n=12, P<0.01, SD<10%, Mann-Whitney test) was “statistically significant difference from other groups”.

With “MQMKKVLDS [Peptide A3, known peptide, antiflammin]” the “Statistical evaluation of clinical scores (Mann-Whitney test), P compared to Dexamethasone” value [1] was 0.089, the “Statistical evaluation of clinical scores (Mann-Whitney test), P compared to Livostine” value [1] was 0.043 and the “Statistical evaluation of clinical scores (Mann-Whitney test), P compared to No treatment group” value [1] was 0.000. For the same compound, the “Clinical signs” value [1] was “statistically significant difference from other groups”, the “Statistical evaluation of eosinophil count (Mann-Whitney test), P compared to Dexamethasone” value [2] was 0.000 and the “Statistical evaluation of eosinophil count (Mann-Whitney test), P compared to Livostine” value [2] was 0.000. For the same compound, the “Statistical evaluation of eosinophil count (Mann-Whitney test), P compared to No treatment group” value [2] was 0.007.

With RKLMEI (PKLMEI) [Peptide P1] the “Statistical evaluation of clinical scores (Mann-Whitney test), P compared to Dexamethasone” value [1] was 0.001, the “Statistical evaluation of clinical scores (Mann-Whitney test), P compared to Livostine” value [1] was 0.003 and the “Statistical evaluation of clinical scores (Mann-Whitney test), P compared to No treatment group” value [1] was 0.009. The “Clinical signs” value [1] was “statistically significant difference from other groups”, the “Statistical evaluation of eosinophil count (Mann-Whitney test), P compared to Dexamethasone” value [2] was 0.000 and the “Statistical evaluation of eosinophil count (Mann-Whitney test), P compared to Livostine” value [2] was 0.000. The “Statistical evaluation of eosinophil count (Mann-Whitney test), P compared to No treatment group” value [2] was 0.002.

For `C[C@@H]1C[C@H]2[C@@H]3CCC4=CC(=O)C=C[C@]4(C)[C@@]3(F)[C@@H](O)C[C@]2(C)[C@@]1(O)C(=O)CO` [Dexamethasone, dexamethasone], the “Statistical evaluation of clinical scores (Mann-Whitney test), P compared to No treatment group” value [1] was 0.000, the “Statistical evaluation of eosinophil count (Mann-Whitney test), P compared to Livostine” value [2] was 0.932 and the “Statistical evaluation of eosinophil count (Mann-Whitney test), P compared to No treatment group” value [2] was 0.000.

In the case of “KVLD [Peptide A4, core tetrapeptide of antiflammins]”, the “PLA2 inhibitor activity, in words” value [3] is listed as “inactive”, the “Statistical evaluation of clinical scores (Mann-Whitney test), P compared to Dexamethasone” value [1] is listed as 0.000 and the “Statistical evaluation of clinical scores (Mann-Whitney test), P compared to Livostine” value [1] is listed as 0.000. For the same compound, the “Statistical evaluation of clinical scores (Mann-Whitney test), P compared to No treatment group” value [1] was 0.082, the “Statistical evaluation of eosinophil count (Mann-Whitney test), P compared to Dexamethasone” value [2] was 0.028 and the “Statistical evaluation of eosinophil count (Mann-Whitney test), P compared to Livostine” value [2] was 0.045. For the same compound, the “Statistical evaluation of eosinophil count (Mann-Whitney test), P compared to No treatment group” value [2] was 0.001.

In the case of PVKG [Peptide E1], the “Statistical evaluation of clinical scores (Mann-Whitney test), P compared to Dexamethasone” value [1] is reported as 0.017, the “Statistical evaluation of clinical scores (Mann-Whitney test), P compared to Livostine” value [1] is reported as 0.012 and the “Statistical evaluation of clinical scores (Mann-Whitney test), P compared to No treatment group” value [1] is reported as 0.001. For the same compound, the “Clinical signs” value [1] was “statistically significant difference from other groups”, the “Statistical evaluation of eosinophil count (Mann-Whitney test), P compared to Dexamethasone” value [2] was 0.000 and the “Statistical evaluation of eosinophil count (Mann-Whitney test), P compared to Livostine” value [2] was 0.000. For the same compound, the “Statistical evaluation of eosinophil count (Mann-Whitney test), P compared to No treatment group” value [2] was 0.002.
